Assay [1] deals with TNFα production in human whole blood. As to the kind of experiment: Test for inhibition against TNFα production in human whole blood (in vitro). Format: cell-based. Here is the method: This test was performed according to the method by Hartman et al. (D. A. Hartman, S. J. Ochalski and R. P. Carlson; The effects of antiinflammatory and antiallergic drugs on cytokine release after stimulation of human whole blood by lipopolysaccharide and zymosan A: Inflamm. Res., 44, 269 (1995)).
Peripheral blood was obtained from a healthy volunteer in the presence of heparin. 360 μL of whole blood was added to a 96-well block to which 20 μL of a dimethyl sulfoxide solution of the analyte compound was previously added. 20 μL of lipopolysaccharide (LPS) (derived from E. coli 026:B6 available from SIGMA Inc.) (final concentration: 10 ng/mL) was further added thereto as a stimulant, and the mixture was sufficiently mixed and incubated under conditions of 37° C. and 5% CO2 for 6 hours. After completion of the incubation, the mixture was cooled to 4° C. to discontinue the reaction, and the mixture was immediately centrifuged at 2000 rpm for 15 minutes. The supernatant plasma was then separated and collected. The TNFα produced and released in the plasma was measured by an enzyme-linked immunosorbent assay (ELISA) kit (made by Biosource International). The inhibition rate was determined from the amount of cytokine produced in the presence and in the absence of the analyte compound. IC50 values were calculated from the average of the inhibition rates by the least-square method. For comparison, an IC50 value was calculated in the same manner as in the case of the test compound, using a compound described in U.S. Pat. No. 5,935,938 as a comparative compound. The structural formula of the comparative compound is shown.
This test was performed in the same manner as in Test Example 1. The same comparative compound as in Test Example 1 was used.

The subject of assay [2] is TNFα production in mice. Description: Test for inhibitory activity against TNFα production in mice (in vivo). Set-up: species or system C3H/HeN mice. The following applies: GalN.LPS, tail vein injection, plasma TNFα after an hour. Here is the method:
This test was performed according to the method by Y. Endo et al. (British Journal of Pharmacology 128, 5-12 (1999)).
(§1) A group of five C3H/HeN mice (male, 7-week old) known to be highly sensitive to lipopolysaccharide (LPS) was used. Galactosamine (GalN, 1 g/5 mL) and LPS (0.05 mg/5 mL) were each dissolved in normal saline, and they were mixed in equal amounts to prepare a GalN.LPS solution. The prepared GalN.LPS solution was injected into the tail vein in a dose of 10 mL/kg. The test compound was dissolved in a 0.1% aqueous triethylamine solution and the mixture was injected into the tail vein in a dose of 10 mL/kg substantially simultaneously with the injection of the GalN.LPS solution. […] The amount of TNFα produced in the plasma was measured using a commercially available TNFα ELISA kit. The inhibitory activity against TNFα production of the test compound was calculated as an inhibition rate against TNFα produced in response to the GalN.LPS injection. A regression line was obtained from the inhibition rates and the doses for the mice. The ID50 value (a dose at which the inhibition rate is 50%) was calculated from the regression line.

Assay [3] concerns mouse fatal state after GalN.LPS injection. As to the kind of experiment: Survival test for mouse fatal state (in vivo). Set-up: species or system C3H/HeN mice. Conditions: tail vein. Here is the method: as §1
This test was performed according to the method by H. Takada (The Journal of Infectious Diseases 162, 428-434 (1990)).
Whether mice were alive or not was observed 72 hours after injection of a GalN.LPS solution, and the survival rate was calculated. The strain, age in week and gender of the mice used, the method of preparing the GalN.LPS solution and the compound solution administered, the administration route, the timing and the like were the same as in Test Example 3. A group of 8 mice was used in the test.

Setting [4] is: human whole blood, LPS 10 ng/mL, 6 hours, ELISA, Test Example 1, Table 1, read-out: IC50 (nM), inhibition of TNFα production.

Like-named read-outs stand apart in the source and are kept apart here. A value given as a limit tells only on which side of the number the result lay.

As to `CCCCCC/C=C\CCCCCCCCCC(=O)N[C@H]1[C@H](OC[C@H]2O[C@H](OP(=O)(O)O)[C@H](NC(=O)CC(=O)CCCCCCCCCCC)[C@@H](OCCCCCCCCCC)[C@@H]2O)O[C@H](COC)[C@@H](OP(=O)(O)O)[C@@H]1OCC[C@@H](CCCCCCC)OC` [Comparative Compound, reference compound], the IC50 came out at 0.97 nM in assay [1] (Homo sapiens, 6 h, read-out: IC50 (nM), inhibition of TNFα production, human whole blood, LPS 10 ng/mL, 6 hours, ELISA, Test Example 1, Table 1); 2.94 nM in assay [1] (Homo sapiens, 6 h, read-out: IC50 (nM), inhibition of TNFα production, human whole blood, LPS 10 ng/mL, 6 hours, ELISA, Test Example 2, Table 2); 8.24 nM in assay [1] (Homo sapiens, 6 h, read-out: IC50 (nM), inhibition of TNFα production, human whole blood, LPS 10 ng/mL, 6 hours, ELISA, Test Example 2, Table 3). The “ID50 (mg/kg), inhibition of TNFα production” value (shortened to “ID50 (mg/kg), inhibition”) in assay [2] (Table 4) was found to be 2.12 mg/kg; in assay [2] (Table 5), 3.28 mg/kg; in assay [2] (Table 6), 1.82 mg/kg. Moreover, the “Survival rate (%) of mice after 72 hours” value was determined as 25% in assay [3] (dose 0.3 mg/kg, Table 7); 50% in assay [3] (dose 0.3 mg/kg, Table 8); 13% in assay [3] (dose 0.3 mg/kg, Table 9); 63% in assay [3] (dose 1 mg/kg, Table 7); 75% in assay [3] (dose 1 mg/kg, Table 8); 0% in assay [3] (dose 1 mg/kg, Table 9). Moreover, the “Survival rate (%) of mice after 72 hours” value in assay [3] (dose 3 mg/kg, Table 7) is reported as 100%; in assay [3] (dose 3 mg/kg, Table 8), 50%; in assay [3] (dose 3 mg/kg, Table 9), 25%.
For the compound `CCCCCC/C=C\CCCCCCCCCC(=O)O[C@H]1[C@H](OC[C@H]2O[C@H](OP(=O)(O)O)[C@H](NC(=O)CC(=O)CCCCCCCCCCC)[C@@H](OCCCCCCCCCC)[C@@H]2O)O[C@H](COC)[C@@H](OP(=O)(O)O)[C@@H]1OCC[C@@H](CCCCCCC)OC` [Compound 1, Phosphono 3-O-decyl-2-deoxy-6-O-{3-O-[(R)-3-methoxydecyl]-6-O-methyl-2-O-[(Z)-11-octadecenoyl]-4-O-phosphono-β-D-glucopyranosyl}-2-(3-oxotetradecanoylamino)-α-D-glucopyranoside], in assay [1] (setting [4]), the IC50 was 0.49 nM. In addition, in assay [2] (Table 4), the “ID50 (mg/kg), inhibition” value was found to be 0.45 mg/kg.
Turning to `CCCCCC/C=C\CCCCCCCCCCO[C@H]1[C@H](OC[C@H]2O[C@H](OP(=O)(O)O)[C@H](NC(=O)CC(=O)CCCCCCCCCCC)[C@@H](OCCCCCCCCCC)[C@@H]2O)O[C@H](COC)[C@@H](OP(=O)(O)O)[C@@H]1OCC[C@@H](CCCCCCC)OC` [Compound 2, Phosphono 3-O-decyl-2-deoxy-6-O-{3-O-[(R)-3-methoxydecyl]-6-O-methyl-2-O-[(Z)-11-octadecenyl]-4-O-phosphono-β-D-glucopyranosyl}-2-(3-oxotetradecanoylamino)-α-D-glucopyranoside], the IC50 in assay [1] (setting [4]) came out at 0.51 nM. The “ID50 (mg/kg), inhibition” value in assay [2] (Table 4) is given as less than 0.2 mg/kg. The “Survival rate (%) of mice after 72 hours” value in assay [3] (dose 0.3 mg/kg, Table 7) came to 38%; in assay [3] (dose 1 mg/kg, Table 7) it was 75%; in assay [3] (dose 3 mg/kg, Table 7) it was 100%.
With `CCCCCC/C=C\CCCCCCCCCC(=O)O[C@H]1[C@H](OC[C@H]2O[C@H](OP(=O)(O)O)[C@H](NC(=O)CC(=O)CCCCCCCCCCC)[C@@H](OCCCCCCCCCC)[C@@H]2O)O[C@H](CO)[C@@H](OP(=O)(O)O)[C@@H]1OCC[C@@H](CCCCCCC)OC` [Compound 3, Phosphono 3-O-decyl-2-deoxy-6-O-{3-O-[(R)-3-methoxydecyl]-2-O-[(Z)-11-octadecenoyl]-4-O-phosphono-β-D-glucopyranosyl}-2-(3-oxotetradecanoylamino)-α-D-glucopyranoside], the IC50 in assay [1] (setting [4]) turned out to be 0.65 nM. In addition, the “ID50 (mg/kg), inhibition” value in assay [2] (Table 4) came out at 0.96 mg/kg. In addition, the “Survival rate (%) of mice after 72 hours” value in assay [3] (dose 0.3 mg/kg, Table 7) came to 50%; in assay [3] (dose 1 mg/kg, Table 7) it was 100%; in assay [3] (dose 3 mg/kg, Table 7) it was 100%.
In the case of `CCCCCC/C=C\CCCCCCCCCC(=O)O[C@H]1[C@H](OC[C@H]2O[C@H](OP(=O)(O)O)[C@H](OC(=O)CC(=O)CCCCCCCCCCC)[C@@H](OCCCCCCCCCC)[C@@H]2O)O[C@H](COC)[C@@H](OP(=O)(O)O)[C@@H]1OCC[C@@H](CCCCCCC)OC` [Compound 8, phosphono 3-O-decyl-6-O-{3-O-[(R)-3-methoxydecyl]-6-O-methyl-2-O-[(Z)-11-octadecenoyl]-4-O-phosphono-β-D-glucopyranosyl}-2-O-(3-oxotetradecanoyl)-α-D-glucopyranoside], in assay [1] (human whole blood, LPS 10 ng/mL, 6 hours, ELISA, Test Example 2, Table 2, read-out: IC50 (nM), inhibition of TNFα production), the IC50 amounted to 0.06 nM. In addition, the “ID50 (mg/kg), inhibition” value in assay [2] (Table 5) is 0.55 mg/kg. For the same compound, the “Survival rate (%) of mice after 72 hours” value in assay [3] (dose 0.3 mg/kg, Table 8) stood at 50%; in assay [3] (dose 1 mg/kg, Table 8), 75%; in assay [3] (dose 3 mg/kg, Table 8) it was 100%.
With `CCCCCC/C=C\CCCCCCCCCC(=O)O[C@H]1[C@H](OC[C@H]2O[C@H](OP(=O)(O)O)[C@H](OC(=O)CC(=O)CCCCCCCCCCC)[C@@H](OCCCCCCCCCC)[C@@H]2O)O[C@H](CO)[C@@H](OP(=O)(O)O)[C@@H]1OCC[C@@H](CCCCCCC)OC` [Compound 9, Phosphono 3-O-decyl-6-O-{3-O-[(R)-3-methoxydecyl]-2-O-[(Z)-11-octadecenoyl]-4-O-phosphono-β-D-glucopyranosyl}-2-O-(3-oxotetradecanoyl)-α-D-glucopyranoside], the IC50 in assay [1] (human whole blood, LPS 10 ng/mL, 6 hours, ELISA, Test Example 2, Table 3, read-out: IC50 (nM), inhibition of TNFα production) was 0.83 nM. In addition, in assay [2] (Table 6), the “ID50 (mg/kg), inhibition” value was less than 0.2 mg/kg. The “Survival rate (%) of mice after 72 hours” value is listed as 13% in assay [3] (dose 0.3 mg/kg, Table 9); 38% in assay [3] (dose 1 mg/kg, Table 9); 100% in assay [3] (dose 3 mg/kg, Table 9).

The record behind these values is patent US20090062214A1, “Left-Side Glucose Lipid a Analogue” (priority 2004, published 2009).
